Reference: US10040781B2, “Tank-binding kinase inhibitor compounds” (Gilead Sciences, Inc., priority 2014, dated 2018)

Tests used:
TBK1 = TBK1 (Homo sapiens (Human), UniProt Q9UHD2); assay: TBK1 TR-FRET enzymatic assay;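 further: phosphorylation of a biotinylated Ser/Thr peptide by purified full-length recombinant TBK1, read by TR-FRET after 240 min at 25 °C, IC50 is the geometric mean of at least four runs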
IKKε = IKKε (Homo sapiens (Human), UniProt Q14164); assay: IKKε TR-FRET enzymatic assay; assay type: biochemical; settings: read-out: IKKe IC50
Chain of IKKε (Q14164 whole entry): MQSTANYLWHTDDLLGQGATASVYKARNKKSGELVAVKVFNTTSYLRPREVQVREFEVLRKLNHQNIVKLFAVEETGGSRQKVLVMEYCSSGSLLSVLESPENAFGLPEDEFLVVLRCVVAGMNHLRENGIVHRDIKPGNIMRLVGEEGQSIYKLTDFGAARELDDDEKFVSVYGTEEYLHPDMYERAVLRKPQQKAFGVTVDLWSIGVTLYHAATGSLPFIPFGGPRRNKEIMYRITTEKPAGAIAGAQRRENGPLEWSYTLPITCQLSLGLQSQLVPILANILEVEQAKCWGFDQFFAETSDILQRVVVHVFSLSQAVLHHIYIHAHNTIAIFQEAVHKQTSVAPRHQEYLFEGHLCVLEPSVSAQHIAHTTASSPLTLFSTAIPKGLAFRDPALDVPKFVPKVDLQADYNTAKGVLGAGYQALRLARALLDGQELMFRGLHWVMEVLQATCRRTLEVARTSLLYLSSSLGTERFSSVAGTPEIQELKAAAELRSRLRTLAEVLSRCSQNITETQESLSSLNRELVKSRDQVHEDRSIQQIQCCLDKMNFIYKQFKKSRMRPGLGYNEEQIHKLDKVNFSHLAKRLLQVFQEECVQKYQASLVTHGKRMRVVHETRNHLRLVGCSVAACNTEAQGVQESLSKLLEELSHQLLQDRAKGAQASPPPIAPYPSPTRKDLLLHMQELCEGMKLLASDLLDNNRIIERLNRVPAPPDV

hJAK2 = hJAK2 (Homo sapiens (Human), UniProt O60674); assay: hJAK2 LANCE TR-FRET enzymatic assay; assay type: biochemical; settings: read-out: JAK2 IC50
Chain of hJAK2 (O60674 whole entry): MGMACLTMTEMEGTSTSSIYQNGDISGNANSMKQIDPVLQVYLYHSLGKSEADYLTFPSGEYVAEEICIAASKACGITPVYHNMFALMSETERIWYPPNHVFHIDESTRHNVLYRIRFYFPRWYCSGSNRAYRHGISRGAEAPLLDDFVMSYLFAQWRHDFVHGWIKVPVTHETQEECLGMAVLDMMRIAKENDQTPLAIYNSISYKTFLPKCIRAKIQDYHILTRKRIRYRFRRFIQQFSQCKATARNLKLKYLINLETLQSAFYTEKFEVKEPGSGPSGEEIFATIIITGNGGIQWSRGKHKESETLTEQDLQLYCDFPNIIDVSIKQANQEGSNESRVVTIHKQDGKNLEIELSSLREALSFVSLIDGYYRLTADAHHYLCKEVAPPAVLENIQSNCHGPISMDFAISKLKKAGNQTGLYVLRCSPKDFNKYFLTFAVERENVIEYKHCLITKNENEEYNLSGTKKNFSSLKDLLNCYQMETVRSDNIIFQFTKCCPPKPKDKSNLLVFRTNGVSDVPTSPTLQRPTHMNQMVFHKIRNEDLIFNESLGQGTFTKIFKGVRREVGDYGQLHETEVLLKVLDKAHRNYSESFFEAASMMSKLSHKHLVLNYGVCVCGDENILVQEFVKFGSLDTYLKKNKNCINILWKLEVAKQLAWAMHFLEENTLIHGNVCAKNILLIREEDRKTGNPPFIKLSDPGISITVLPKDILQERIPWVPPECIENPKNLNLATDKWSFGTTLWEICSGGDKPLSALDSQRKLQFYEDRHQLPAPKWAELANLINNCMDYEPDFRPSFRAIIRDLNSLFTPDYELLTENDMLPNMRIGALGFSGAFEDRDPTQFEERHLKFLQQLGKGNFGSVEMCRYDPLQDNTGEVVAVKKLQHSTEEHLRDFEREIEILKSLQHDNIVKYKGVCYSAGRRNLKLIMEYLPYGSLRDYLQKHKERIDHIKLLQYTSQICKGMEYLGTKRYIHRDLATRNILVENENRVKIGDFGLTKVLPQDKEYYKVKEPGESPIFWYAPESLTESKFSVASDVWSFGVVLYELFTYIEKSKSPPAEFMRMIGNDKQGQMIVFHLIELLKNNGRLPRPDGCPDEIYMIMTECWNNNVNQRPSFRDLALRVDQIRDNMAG

Chain of TBK1 (Q9UHD2 whole entry): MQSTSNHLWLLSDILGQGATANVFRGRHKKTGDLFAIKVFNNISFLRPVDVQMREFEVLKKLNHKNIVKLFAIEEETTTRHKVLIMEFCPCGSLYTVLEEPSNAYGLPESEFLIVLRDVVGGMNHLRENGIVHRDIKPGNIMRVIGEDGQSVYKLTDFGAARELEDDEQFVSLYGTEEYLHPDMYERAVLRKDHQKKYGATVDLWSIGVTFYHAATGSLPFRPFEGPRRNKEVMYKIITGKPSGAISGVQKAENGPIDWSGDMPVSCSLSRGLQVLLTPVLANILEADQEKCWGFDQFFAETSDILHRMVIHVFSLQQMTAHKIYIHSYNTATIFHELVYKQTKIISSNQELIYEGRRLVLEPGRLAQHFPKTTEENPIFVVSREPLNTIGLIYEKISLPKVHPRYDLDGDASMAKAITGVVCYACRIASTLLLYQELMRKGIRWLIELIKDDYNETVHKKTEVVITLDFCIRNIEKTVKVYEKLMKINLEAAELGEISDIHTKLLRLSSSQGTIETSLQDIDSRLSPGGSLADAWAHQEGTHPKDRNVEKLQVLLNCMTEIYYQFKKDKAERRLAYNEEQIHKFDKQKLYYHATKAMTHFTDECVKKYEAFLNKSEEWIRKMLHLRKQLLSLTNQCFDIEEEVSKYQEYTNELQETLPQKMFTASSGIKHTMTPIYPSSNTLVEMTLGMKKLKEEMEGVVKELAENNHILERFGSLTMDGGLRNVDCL

Compound | IC50 (TBK1) [nM] | IC50 (IKKε) [nM] | IC50 (hJAK2) [nM]
C[C@H](O)C(=O)N1CC[C@H](Oc2ccc(-c3ncnc(Nc4ccc(C5CCOCC5)cc4)n3)cc2C#N)[C@H](F)C1 [Example 293, 2-(((3R,4S)-3-fluoro-1-((S)-2-hydroxypropanoyl)piperidin-4-yl)oxy)-5-(4-((4-(tetrahydro-2H-pyran-4-yl)phenyl)amino)-1,3,5-triazin-2-yl)benzonitrile] | 3 | 2 | ≥ 1000
N#Cc1cc(-c2ncnc(Nc3ccc(N4CCNCC4)c(F)c3)n2)ccc1O[C@H]1CCN(C=O)C[C@H]1F [Example 296, 2-(((3R,4S)-3-fluoro-1-formylpiperidin-4-yl)oxy)-5-(4-((3-fluoro-4-(piperazin-1-yl)phenyl)amino)-1,3,5-triazin-2-yl)benzonitrile] | 3 | 1 | 274
N#Cc1cc(-c2ncnc(Nc3ccc(N4CCN(C5COC5)CC4)cc3)n2)ccc1O[C@H]1CCOC[C@H]1F [Example 297, 2-(((3R,4S)-3-fluorotetrahydro-2H-pyran-4-yl)oxy)-5-(4-((4-(4-(oxetan-3-yl)piperazin-1-yl)phenyl)amino)-1,3,5-triazin-2-yl)benzonitrile] | 2 | 4 | 397
N#Cc1cc(-c2ncnc(Nc3ccc(N4CCN(C=O)CC4)c(F)c3)n2)ccc1O[C@H]1CCOC[C@H]1F [Example 299, 5-(4-((3-fluoro-4-(4-formylpiperazin-1-yl)phenyl)amino)-1,3,5-triazin-2-yl)-2-(((3R,4S)-3-fluorotetrahydro-2H-pyran-4-yl)oxy)benzonitrile] | 4 | 8 | 401
CN1CCC(c2ccc(Nc3ncnc(-c4ccc(O[C@H]5CCOC[C@H]5F)c(C#N)c4)n3)cc2)CC1 [Example 300, 2-(((3R,4S)-3-fluorotetrahydro-2H-pyran-4-yl)oxy)-5-(4-((4-(1-methylpiperidin-4-yl)phenyl)amino)-1,3,5-triazin-2-yl)benzonitrile] | 4 | 3 | 453
C[C@H](O)C(=O)N1CC[C@H](Oc2ccc(-c3ncnc(Nc4ccc(N5CCN(C6CCOCC6)CC5)cc4)n3)cc2C#N)[C@H](F)C1 [Example 309, 2-(((3R,4S)-3-fluoro-1-((S)-2-hydroxypropanoyl)piperidin-4-yl)oxy)-5-(4-((4-(4-(tetrahydro-2H-pyran-4-yl)piperazin-1-yl)phenyl)amino)-1,3,5-triazin-2-yl)benzonitrile] | 2 | 1 | 423
C[C@H](O)C(=O)N1CC[C@H](Oc2ccc(-c3ncnc(Nc4ccc(C5CCN(C6COC6)CC5)c(F)c4)n3)cc2C#N)[C@H](F)C1 [Example 310, 2-(((3R,4S)-3-fluoro-1-((S)-2-hydroxypropanoyl)piperidin-4-yl)oxy)-5-(4-((3-fluoro-4-(1-(oxetan-3-yl)piperidin-4-yl)phenyl)amino)-1,3,5-triazin-2-yl)benzonitrile] | 4 | 2 | ≥ 1000
C[C@H](O)C(=O)N1CC[C@H](Oc2ccc(-c3ncnc(Nc4ccc(N5CC6(CCOCC6)C5)cc4)n3)cc2C#N)[C@H](F)C1 [Example 313, 5-(4-((4-(7-oxa-2-azaspiro[3.5]nonan-2-yl)phenyl)amino)-1,3,5-triazin-2-yl)-2-(((3R,4S)-3-fluoro-1-((S)-2-hydroxypropanoyl)piperidin-4-yl)oxy)benzonitrile] | 4 | 2 | 375
C[C@H](O)C(=O)N1CC[C@H](Oc2ccc(-c3ncnc(Nc4ccc(N5CCOC(C(N)=O)C5)cc4)n3)cc2C#N)[C@H](F)C1 (stereo partly drawn) [Example 314, 4-(4-((4-(3-cyano-4-(((3R,4S)-3-fluoro-1-((S)-2-hydroxypropanoyl)piperidin-4-yl)oxy)phenyl)-1,3,5-triazin-2-yl)amino)phenyl)morpholine-2-carboxamide] | 3 | 1 | 609
C[C@H](O)C(=O)N1CC[C@H](Oc2ccc(-c3ncnc(Nc4ccc(N5CCO[C@@H](C(N)=O)C5)cc4)n3)cc2C#N)[C@H](F)C1 [Example 315, (R)-4-(4-((4-(3-cyano-4-(((3R,4S)-3-fluoro-1-((S)-2-hydroxypropanoyl)piperidin-4-yl)oxy)phenyl)-1,3,5-triazin-2-yl)amino)phenyl)morpholine-2-carboxamide] | 9 | 3 | 564
N#Cc1cc(-c2ncnc(Nc3ccc(N4CCN(C5COC5)CC4)cc3)n2)ccc1O[C@H]1CCN(C(=O)Cc2cnn[nH]2)C[C@H]1F [Example 319, 2-(((3R,4S)-1-(2-(1H-1,2,3-triazol-5-yl)acetyl)-3-fluoropiperidin-4-yl)oxy)-5-(4-((4-(4-(oxetan-3-yl)piperazin-1-yl)phenyl)amino)-1,3,5-triazin-2-yl)benzonitrile] | 4 | 7 | 102
Cc1cc(C(=O)N2CC[C@H](Oc3ccc(-c4ncnc(Nc5ccc(N6CCN(C7COC7)CC6)cc5)n4)cc3C#N)[C@H](F)C2)[nH]n1 [Example 321, 2-(((3R,4S)-3-fluoro-1-(3-methyl-1H-pyrazole-5-carbonyl)piperidin-4-yl)oxy)-5-(4-((4-(4-(oxetan-3-yl)piperazin-1-yl)phenyl)amino)-1,3,5-triazin-2-yl)benzonitrile] | 3 | 2 | 164

Further molecules by falling IC50 (TBK1), results first:

IC50 (TBK1) [nM] | IC50 (IKKε) [nM] | IC50 (hJAK2) [nM] | Compound
14 | 40 | 127 | N#Cc1cc(-c2ncnc(Nc3ccc(N4CCN(C5COC5)CC4)cc3)n2)ccc1O[C@H]1CCN(C(=O)Cc2ccn[nH]2)C[C@H]1F [Example 320, 2-(((3R,4S)-1-(2-(1H-pyrazol-5-yl)acetyl)-3-fluoropiperidin-4-yl)oxy)-5-(4-((4-(4-(oxetan-3-yl)piperazin-1-yl)phenyl)amino)-1,3,5-triazin-2-yl)benzonitrile]
5 | 8 | 192 | N#Cc1cc(-c2ncnc(Nc3ccc(N4CCN(C5COC5)CC4)cc3)n2)ccc1O[C@H]1CCN(C(=O)c2[nH]ncc2Cl)C[C@H]1F [Example 322, 2-(((3R,4S)-1-(4-chloro-1H-pyrazole-5-carbonyl)-3-fluoropiperidin-4-yl)oxy)-5-(4-((4-(4-(oxetan-3-yl)piperazin-1-yl)phenyl)amino)-1,3,5-triazin-2-yl)benzonitrile]
4 | 5 | 228 | C[C@H](O)C(=O)N1CC[C@H](Oc2ccc(-c3ncnc(Nc4cnn(C(C)(C)C)c4)n3)cc2C#N)[C@H](F)C1 [Example 294, 5-(4-((1-(tert-butyl)-1H-pyrazol-4-yl)amino)-1,3,5-triazin-2-yl)-2-(((3R,4S)-3-fluoro-1-((S)-2-hydroxypropanoyl)piperidin-4-yl)oxy)benzonitrile]
3 | 1 | 268 | N#Cc1cc(-c2ncnc(Nc3ccc(N4CCN(C5CCOCC5)CC4)c(F)c3)n2)ccc1O[C@H]1CCN(C(=O)CO)C[C@H]1F [Example 307, 2-(((3R,4S)-3-fluoro-1-(2-hydroxyacetyl)piperidin-4-yl)oxy)-5-(4-((3-fluoro-4-(4-(tetrahydro-2H-pyran-4-yl)piperazin-1-yl)phenyl)amino)-1,3,5-triazin-2-yl)benzonitrile]
3 | 3 | 636 | C[C@H](O)C(=O)N1CC[C@H](Oc2ccc(-c3ncnc(Nc4ccc(N5CCN(C6(C)COC6)CC5)cc4)n3)cc2C#N)[C@H](F)C1 [Example 312, 2-(((3R,4S)-3-fluoro-1-((S)-2-hydroxypropanoyl)piperidin-4-yl)oxy)-5-(4-((4-(4-(3-methyloxetan-3-yl)piperazin-1-yl)phenyl)amino)-1,3,5-triazin-2-yl)benzonitrile]
3 | 2 | 347 | C[C@H](O)C(=O)N1CC[C@H](Oc2ccc(-c3ncnc(Nc4ccc(N5CCO[C@H](C(N)=O)C5)cc4)n3)cc2C#N)[C@H](F)C1 [Example 316, (S)-4-(4-((4-(3-cyano-4-(((3R,4S)-3-fluoro-1-((S)-2-hydroxypropanoyl)piperidin-4-yl)oxy)phenyl)-1,3,5-triazin-2-yl)amino)phenyl)morpholine-2-carboxamide]
3 | 3 | 75 | N#Cc1cc(-c2ncnc(Nc3ccc(N4CCN(C5COC5)CC4)cc3)n2)ccc1O[C@H]1CCN(C(=O)c2[nH]nc(N)c2Cl)C[C@H]1F [Example 323, 2-(((3R,4S)-1-(3-amino-4-chloro-1H-pyrazole-5-carbonyl)-3-fluoropiperidin-4-yl)oxy)-5-(4-((4-(4-(oxetan-3-yl)piperazin-1-yl)phenyl)amino)-1,3,5-triazin-2-yl)benzonitrile]
2 | 1 | 475 | C[C@H](O)C(=O)N1CC[C@H](Oc2ccc(-c3ncnc(Nc4ccc(N5CCN(CC6COC6)CC5)cc4)n3)cc2C#N)[C@H](F)C1 [Example 308, 2-(((3R,4S)-3-fluoro-1-((S)-2-hydroxypropanoyl)piperidin-4-yl)oxy)-5-(4-((4-(4-(oxetan-3-ylmethyl)piperazin-1-yl)phenyl)amino)-1,3,5-triazin-2-yl)benzonitrile]
2 | 1 | ≥ 1000 | C[C@H](O)C(=O)N1CC[C@H](Oc2ccc(-c3ncnc(Nc4ccc(N5CC6COCC6C5)cc4)n3)cc2C#N)[C@H](F)C1 (stereo partly drawn) [Example 317, 2-(((3R,4S)-3-fluoro-1-((S)-2-hydroxypropanoyl)piperidin-4-yl)oxy)-5-(4-((4-(tetrahydro-1H-furo[3,4-c]pyrrol-5(3H)-yl)phenyl)amino)-1,3,5-triazin-2-yl)benzonitrile]
2 | 1 | 72 | COc1cc(Nc2ncnc(-c3ccc(O[C@H]4CCN(C(=O)[C@H](C)O)C[C@H]4F)c(C#N)c3)n2)ccc1N1CCC(N2CCOCC2)CC1 [Example 326, 2-(((3R,4S)-3-fluoro-1-((S)-2-hydroxypropanoyl)piperidin-4-yl)oxy)-5-(4-((3-methoxy-4-(4-morpholinopiperidin-1-yl)phenyl)amino)-1,3,5-triazin-2-yl)benzonitrile]
